Columns and labels:
healthy nu/nu mice [1] = details: suspension in 1:1 Cremophor EL to ethanol; literature; cited from earlier work
healthy nu/nu mice [2] = assay: in vivo; details: 30 mg/kg IV; listed as clinically formulated paclitaxel
Procedure: (§1) Mouse weight was recorded once daily until all animals in the cohort returned to, or surpassed, their weight on the day of injection. […] Two additional cohorts (6 mice, 3 per group) were treated with 15 mg/kg and 30 mg/kg of clinically formulated paclitaxel (a 6 mg/mL suspension in 1:1 ethanol:Cremophor EL®, diluted with 1×DPBS prior to injection).

in vivo = details: female, nu/nu, mouse, in vivo, iv
Procedure: as §1

SMILES: CC(=O)O[C@H]1C(=O)[C@@]2(C)[C@H]([C@H](OC(=O)c3ccccc3)[C@]3(O)C[C@H](OC(=O)[C@H](O)[C@@H](NC(=O)c4ccccc4)c4ccccc4)C(C)=C1C3(C)C)[C@]1(OC(C)=O)CO[C@@H]1C[C@@H]2O [PTX, paclitaxel]
- MTD in mice previously established (healthy nu/nu mice [1]): 10 to 30 mg/kg
- lethality (healthy nu/nu mice [2]): 1 out of the 3 animals died within 30 minutes post-injection and also died within an hour of injection
- LD50 (in vivo): 30 mg/kg
- MTD (in vivo): 15 mg/kg
